For 13 molecules, EC50 results are on record in patent US8889854B2, “C-17 bicyclic amines of triterpenoids with HIV maturation inhibitory activity” (priority 2012, dated 2014).

Molecules are shown by their SMILES. Where only a bound is given, the exact number is not on record here.

The test concerns recombinant NL4-3 virus (Renilla luciferase in nef, Gag P373S; NLRluc). Put plainly: HIV Cell Culture Assay (luciferase reporter virus in MT-2 cells). It is filed as cell-based. As to conditions: Renilla, NL43, MT-2 cells infected for 4-5 days with NLRluc recombinants, luciferase activity. The procedure: MT-2 cells and 293T cells were obtained from the NIH AIDS Research and Reference Reagent Program. MT-2 cells were propagated in RPMI 1640 media supplemented with 10% heat inactivated fetal bovine serum, […]. The 293T cells were propagated in DMEM media supplemented with 10% heat inactivated fetal bovine serum (FBS), 100 units/mL penicillin G and 100 μg/mL streptomycin. The proviral DNA clone of NL4-3 was obtained from the NIH AIDS Research and Reference Reagent Program. A recombinant NL4-3 virus, in which a section of the nef gene from NL4-3 was replaced with the Renilla luciferase gene, was used as a reference virus. In addition, residue Gag P373 was converted to P373S. Briefly, the recombinant virus was prepared by transfection of the altered proviral clone of NL4-3. Transfections were performed in 293T cells using LipofectAMINE PLUS from Invitrogen (Carlsbad, Calif.), according to manufacturer's instruction. The virus was titered in MT-2 cells using luciferase enzyme activity as a marker. Luciferase was quantitated using the Dual Luciferase kit from Promega (Madison, Wis.), with modifications to the manufacturer's protocol. The diluted Passive Lysis solution was pre-mixed with the re-suspended Luciferase Assay Reagent and the re-suspended Stop & Glo Substrate (2:1:1 ratio). Fifty (50) μL of the mixture was added to each aspirated well on assay plates and luciferase activity was measured immediately on a Wallac TriLux (Perkin-Elmer). Antiviral activities of inhibitors toward the recombinant virus were quantified by measuring luciferase activity in cells infected for 4-5 days with NLRluc recombinants in the presence serial dilutions of the inhibitor. Table 1 is the key for the data in Table 2.

In the case of `C=C(C)[C@@H]1CC[C@]2(NCCN3C[C@H]4C[C@@H](C3)N4S(C)(=O)=O)CC[C@]3(C)[C@H](CC[C@@H]4[C@@]5(C)CC=C(c6ccc(C(=O)O)cc6)C(C)(C)[C@@H]5CC[C@]43C)[C@@H]12` [Example 14, 4-((1R,3aS,5aR,5bR,7aR,11aS,11bR,13aR,13bR)-5a,5b,8,8,11a-pentamethyl-3a-((2-((1R,5S)-6-(methylsulfonyl)-3,6-diazabicyclo[3.1.1]heptan-3-yl)ethyl)amino)-1-(prop-1-en-2-yl)-2,3,3a,4,5,5a,5b,6,7,7a,8,11,11a,11b,12,13,13a,13b-octadecahydro-1H-cyclopenta[a]chrysen-9-yl)benzoic acid], the EC50 (in general, the concentration giving half of the maximal effect) was 3.24 nM. For the molecule `C=C(C)[C@@H]1CC[C@]2(NCCN3CCC4(C3)CN(S(C)(=O)=O)C4)CC[C@]3(C)[C@H](CC[C@@H]4[C@@]5(C)CC=C(c6ccc(C(=O)O)cc6)C(C)(C)[C@@H]5CC[C@]43C)[C@@H]12` [Example 15, 4-((1R,3aS,5aR,5bR,7aR,11aS,11bR,13aR,13bR)-5a,5b,8,8,11a-pentamethyl-3a-((2-(2-(methylsulfonyl)-2,6-diazaspiro[3.4]octan-6-yl)ethyl)amino)-1-(prop-1-en-2-yl)-2,3,3a,4,5,5a,5b,6,7,7a,8,11,11a,11b,12,13,13a,13b-octadecahydro-1H-cyclopenta[a]chrysen-9-yl)benzoic acid], the EC50 turned out to be 1.65 nM.

For `C=C(C)[C@@H]1CC[C@]2(NCCN3CC4(C3)CN(S(C)(=O)=O)C4)CC[C@]3(C)[C@H](CC[C@@H]4[C@@]5(C)CC=C(c6ccc(C(=O)O)cc6)C(C)(C)[C@@H]5CC[C@]43C)[C@@H]12` [Example 16, 4-((1R,3aS,5aR,5bR,7aR,11aS,11bR,13 aR,13bR)-5a,5b,8,8,11a-pentamethyl-3a-((2-(6-(methylsulfonyl)-2,6-diazaspiro[3.3]heptan-2-yl)ethyl)amino)-1-(prop-1-en-2-yl)-2,3,3a,4,5,5a,5b,6,7,7a,8,11,11a,11b,12,13,13a,13b-octadecahydro-1H-cyclopenta[a]chrysen-9-yl)benzoic acid], the EC50 worked out at 1.64 nM. With `C=C(C)[C@@H]1CC[C@]2(NCCN3CC4C(C3)C4NS(C)(=O)=O)CC[C@]3(C)[C@H](CC[C@@H]4[C@@]5(C)CC=C(c6ccc(C(=O)O)cc6)C(C)(C)[C@@H]5CC[C@]43C)[C@@H]12` (stereo partly drawn) [Example 17, 4-((1R,3aS,5aR,5bR,7aR,11aS,11bR,13aR,13bR)-5a,5b,8,8,11a-pentamethyl-3a-((2-(6-(methylsulfonamido)-3-azabicyclo[3.1.0]hexan-3-yl)ethyl)amino)-1-(prop-1-en-2-yl)-2,3,3a,4,5,5a,5b,6,7,7a,8,11,11a,11b,12,13,13a,13b-octadecahydro-1H-cyclopenta[a]chrysen-9-yl)benzoic acid], under “reported as group A/B”, the EC50 is less than 100 nM. Still for that read-out and setting: with `C=C(C)[C@@H]1CC[C@]2(NCCN3C[C@H]4C[C@@H]3CS4(=O)=O)CC[C@]3(C)[C@H](CC[C@@H]4[C@@]5(C)CC=C(c6ccc(C(=O)O)cc6)C(C)(C)[C@@H]5CC[C@]43C)[C@@H]12` [Example 18, 4-((1R,3aS,5aR,5bR,7aR,11aS,11bR,13aR,13bR)-3a-((2-((1R,4R)-2,2-dioxido-2-thia-5-azabicyclo[2.2.1]heptan-5-yl)ethyl)amino)-5a,5b,8,8,11a-pentamethyl-1-(prop-1-en-2-yl)-2,3,3a,4,5,5a,5b,6,7,7a,8,11,11a,11b,12,13,13a,13b-octadecahydro-1H-cyclopenta[a]chrysen-9-yl)benzoic acid] the figure was less than 100 nM. Take `C=C(C)[C@@H]1CC[C@]2(NCCN3[C@@H]4CCC[C@H]3COC4)CC[C@]3(C)[C@H](CC[C@@H]4[C@@]5(C)CC=C(c6ccc(C(=O)O)cc6)C(C)(C)[C@@H]5CC[C@]43C)[C@@H]12` [Example A1, 4-((1R,3aS,5aR,5bR,7aR,11aS,11bR,13aR,13bR)-3a-((2-((1R,5S)-3-oxa-9-azabicyclo[3.3.1]nonan-9-yl)ethyl)amino)-5a,5b,8,8,11a-pentamethyl-1-(prop-1-en-2-yl)-2,3,3a,4,5,5a,5b,6,7,7a,8,11,11a,11b,12,13,13a,13b-octadecahydro-1H-cyclopenta[a]chrysen-9-yl)benzoic acid]: the EC50 is 30 nM. For `C=C(C)[C@@H]1CC[C@]2(NCCN3CC4CCC(C3)O4)CC[C@]3(C)[C@H](CC[C@@H]4[C@@]5(C)CC=C(c6ccc(C(=O)O)cc6)C(C)(C)[C@@H]5CC[C@]43C)[C@@H]12` [Example A2, 4-((1R,3aS,5aR,5bR,7aR,11aS,11bR,13aR,13bR)-3a-((2-(8-oxa-3-azabicyclo[3.2.1]octan-3-yl)ethyl)amino)-5a,5b,8,8,11a-pentamethyl-1-(prop-1-en-2-yl)-2,3,3a,4,5,5a,5b,6,7,7a,8,11,11a,11b,12,13,13a,13b-octadecahydro-1H-cyclopenta[a]chrysen-9-yl)benzoic acid], the 50% effective concentration (EC50) came to 71 nM. On the same count and under the same terms, for `C=C(C)[C@@H]1CC[C@]2(NCCN3C4COCC3COC4)CC[C@]3(C)[C@H](CC[C@@H]4[C@@]5(C)CC=C(c6ccc(C(=O)O)cc6)C(C)(C)[C@@H]5CC[C@]43C)[C@@H]12` [Example A3, 4-((1R,3aS,5aR,5bR,7aR,11aS,11bR,13aR,13bR)-3a-((2-((1R,5R)-3,7-dioxa-9-azabicyclo[3.3.1]nonan-9-yl)ethyl)amino)-5a,5b,8,8,11a-pentamethyl-1-(prop-1-en-2-yl)-2,3,3a,4,5,5a,5b,6,7,7a,8,11,11a,11b,12,13,13a,13b-octadecahydro-1H-cyclopenta[a]chrysen-9-yl)benzoic acid] the value was 83 nM; for `C=C(C)[C@@H]1CC[C@]2(NCCN3C4CCC3CC(C)(O)C4)CC[C@]3(C)[C@H](CC[C@@H]4[C@@]5(C)CC=C(c6ccc(C(=O)O)cc6)C(C)(C)[C@@H]5CC[C@]43C)[C@@H]12` (stereo partly drawn) [Example A4, 4-((1R,3aS,5aR,5bR,7aR,11aS,11bR,13aR,13bR)-3a-((2-((1R,3S,5S)-3-hydroxy-3-methyl-8-azabicyclo[3.2.1]octan-8-yl)ethyl)amino)-5a,5b,8,8,11a-pentamethyl-1-(prop-1-en-2-yl)-2,3,3a,4,5,5a,5b,6,7,7a,8,11,11a,11b,12,13,13a,13b-octadecahydro-1H-cyclopenta[a]chrysen-9-yl)benzoic acid], 8.8 nM. Regarding `C=C(C)[C@@H]1CC[C@]2(NCCN3CC4CC3CO4)CC[C@]3(C)[C@H](CC[C@@H]4[C@@]5(C)CC=C(C6=CCC(C(=O)O)CC6)C(C)(C)[C@@H]5CC[C@]43C)[C@@H]12` (stereo partly drawn) [Example B1, 4-((1R,3aS,5aR,5bR,7aR,11aS,11bR,13aR,13bR)-3a-((2-(2-oxa-5-azabicyclo[2.2.1]heptan-5-yl)ethyl)amino)-5a,5b,8,8,11a-pentamethyl-1-(prop-1-en-2-yl)-2,3,3a,4,5,5a,5b,6,7,7a,8,11,11a,11b,12,13,13a,13b-octadecahydro-1H-cyclopenta[a]chrysen-9-yl)cyclohex-3-enecarboxylic acid], for the setting “reported as group A/B”, the concentration for a half-maximal effect (EC50) was less than 100 nM.

As for `C=C(C)[C@@H]1CC[C@]2(NCCN3C[C@@H]4C[C@H]3CS4(=O)=O)CC[C@]3(C)[C@H](CC[C@@H]4[C@@]5(C)CC=C(C6=CCC(C(=O)O)CC6)C(C)(C)[C@@H]5CC[C@]43C)[C@@H]12` (stereo partly drawn) [Example B2, 4-((1R,3aS,5aR,5bR,7aR,11aS,11bR,13aR,13bR)-3a-((2((1S,4S)-2,2-dioxido-2-thia-5-azabicyclo[2.2.1]heptan-5-yl)ethyl)amino)-5a,5b,8,8,11a-pentamethyl-1-(prop-1-en-2-yl)-2,3,3a,4,5,5a,5b,6,7,7a,8,11,11a,11b,12,13,13a,13b-octadecahydro-1H-cyclopenta[a]chrysen-9-yl)cyclohex-3-enecarboxylic acid], the EC50 worked out at 1.18 nM.

For `C=C(C)[C@@H]1CC[C@]2(NCCN3CCC4(CC3)COC4)CC[C@]3(C)[C@H](CC[C@@H]4[C@@]5(C)CC=C(c6ccc(C(=O)O)cc6)C(C)(C)[C@@H]5CC[C@]43C)[C@@H]12` [Example B3], the EC50 amounted to 3.82 nM. `C=C(C)[C@@H]1CC[C@]2(NCCN3C[C@@H]4C[C@H]3CS4(=O)=O)CC[C@]3(C)[C@H](CC[C@@H]4[C@@]5(C)CC=C(C6=CC[C@@H](C(=O)O)CC6)C(C)(C)[C@@H]5CC[C@]43C)[C@@H]12` [Example B8, (S)-4-((1R,3aS,5aR,5bR,7aR,11aS,11bR,13aR,13bR)-3a-((2-((1S,4S)-2,2-dioxido-2-thia-5-azabicyclo[2.2.1]heptan-5-yl)ethyl)amino)-5a,5b,8,8,11a-pentamethyl-1-(prop-1-en-2-yl)-2,3,3a,4,5,5a,5b,6,7,7a,8,11,11a,11b,12,13,13a,13b-octadecahydro-1H-cyclopenta[a]chrysen-9-yl)cyclohex-3-enecarboxylic acid]: the EC50 stood at 1.3 nM.
